Laboratory results: US20230404956A1, “T[…] FOR […]” (Asklepion Pharmaceuticals LLC, priority 2022, published 2023)

Experiments:
nitric oxide production = assay: Nitric oxide production in a murine system, measured via NO metabolites
Description: It is important to recall that citrulline is regenerated in the last step of NO production, making negative feedback by citrulline a reasonable hypothesis. Alternatively, an acute increase in NO production, which is known to have a negative feedback effect on NOS (Viziri and Wang, 1999) could explain the results. […] The negative clinical effects in the >95% group for the Phase 3 trial may thus result from one or more negative feedback mechanisms. The negative feedback could result from either the effect of NO or the citrulline itself creating feedback on the system.

[1] = test system: pediatric patients exposed to cardiopulmonary bypass in congenital heart defect surgery; assay: Phase 3 double-blind, placebo-controlled trial of citrulline in congenital heart defect surgery with cardiopulmonary bypass; format: in vivo
Procedure: A Phase 3 study was carried out as a double-blind, placebo-controlled trial to confirm the effect. The Phase 3 trial was performed in the US, EU, and Israel, using a modified intent-to-treat population (or modified full analysis set) of 190 patients, of whom 138 were in the US and 52 were ex-US.
The starting point for the analysis was consideration of the complete modified full analysis set, consisting of all enrolled patients who completed the protocol. […] The Modified Full Analysis Set consists of all enrolled patients who completed the protocol.
In the study protocol and accompanying pharmacy manual for both studies, citrulline dosing occurs in four distinct phases. Dose 1 is a loading dose added to the cardiopulmonary bypass fluids on a mg/kg basis. Dose 3 is a bolus administered following surgery on a mg/kg basis, and Dose 4 is an IV drip at 9 mg/kg/hour. No variation in administration of these doses was introduced during the course of the phase 3 study.
In contrast, Dose 2, the intraoperative dosing designed to compensate for ultrafiltration, was subject to some variation. Ultrafiltration during cardiac surgery is not standardized, and therefore, it was not possible to completely standardize this dose. The perfusionist estimates the volume of ultrafiltrate removed, as well as the volume of cardioplegia solution. The perfusionist then calculates according to the study pharmacy manual instructions the amount of citrulline to be administered to compensate for the ultrafiltered citrulline in order to maintain a specified therapeutic level.
Although the therapeutic target level was set at 100 micromolar during the phase 2 study, because of the potential for variation in Dose 2 (which is given intraoperatively to compensate for the routine ongoing ultrafiltration of circulating bypass fluids to reduce the circulating concentrations of inflammatory mediators) and the concern that some patients might inadvertently receive sub-therapeutic intraoperative levels, the target level for Dose 2 in the phase 3 study was increased to 200 micromolar. This was considered to be safe since no adverse effects of citrulline had been reported, even at substantially higher levels in medical use. In order to examine whether variation in Dose 2 could explain the results obtained, the actual dose received, shown as the percent of the targeted dose, was plotted against the composite variable results. Since placebos received no citrulline, they were plotted at the 0% level.
For the Phase 3 trial, a target intraoperative dose of […] (Dose 2) was chosen to preclude an inadvertent drop below an efficacious level in any patient. The potential for variation in intraoperative dosing arises from the lack of standardization of cardiopulmonary bypass ultrafiltration techniques. […] Nonetheless, expansion of the study to a greater number of sites raised the concern that some sites might inadvertently underdose Dose 2. Given the known innocuous nature of L-citrulline, an endogenous amino acid that is given medicinally in doses an order of magnitude higher than this to urea cycle disorder patients, as well as the well-tolerated high endogenous concentrations of citrulline in hypercitrullinemia patients, there was no concern for erring on the high side of the presumed effective dose.
To investigate the data in more detail, patients were stratified according to the dose level actually administered intraoperatively. The values obtained for duration of mechanical ventilation (MV), length of inotrope therapy (InoTx) and the composite primary (created for the SAP, based on the longer of the MV or InoTx) in any patient were segmented into groups based on the percent of the 200 μmol target dose actually received by the patient, by comparing patients who had received <65%, <75%, <85%, <95%, and >95% of the calculated target dose. […] Analysis was performed via two-sided Wilcoxon Rank Sum. […]

[2] = test system: pediatric patients undergoing surgical procedures involving cardiopulmonary bypass; conditions: 22 patients (11 Tx, 11 PL); Dose 2 100 μmol; cited from earlier work

Structure (SMILES): NC(=O)NCCC[C@H](N)C(=O)O [citrulline, L-citrulline]
- Nitric oxide production as measured via NO metabolites (nitric oxide production; continued increase in citrulline concentration): diminished production of NO
- Nitric oxide production (nitric oxide production; increasing levels of citrulline, initially): initially facilitate nitric oxide production
- Composite (the longer of the MV or InoTx), median ([1]; <65% of target Dose 2, p = 0.0040 vs placebo): 1267.0 min
- Vent (duration of mechanical ventilation), median ([1]; <65% of target Dose 2, p = 0.0097 vs placebo): 139.0 min
- Inotrope (duration of inotrope therapy), median ([1]; <65% of target Dose 2, p = 0.0211 vs placebo): 1260.0 min
- PICU/NICU stay, median ([1]; <65% of target Dose 2, p = 0.0236 vs placebo): 2 days
- Hospitalization, median ([1]; <65% of target Dose 2, p = 0.0953 vs placebo): 4 days
- Long-term hospitalizations, citrulline-treated vs placebo ([1]; <75% of calculated Dose 2): fewer long-term hospitalizations
- Overall length of hospital stay, citrulline vs placebo ([1]; <75% of calculated Dose 2): not significantly different
- Reduction of median Composite time vs placebo ([1]; <75% of target Dose 2): 42%
- Reduction of median Inotrope time vs placebo ([1]; <75% of target Dose 2): 26%
- Reduction of median Mechanical Ventilation time vs placebo ([1]; <75% of target Dose 2): 70%
- Reduction of median PICU/NICU stay vs placebo ([1]; <75% of target Dose 2): 33%
- Composite (the longer of the MV or InoTx), median ([1]; <75% of target Dose 2, p = 0.0025 vs placebo): 1267.0 min
- Vent (duration of mechanical ventilation), median ([1]; <75% of target Dose 2, p = 0.0129 vs placebo): 170.0 min
- Inotrope (duration of inotrope therapy), median ([1]; <75% of target Dose 2, p = 0.0158 vs placebo): 1260.0 min
- PICU/NICU stay, median ([1]; <75% of target Dose 2, p = 0.0295 vs placebo): 2 days
- Hospitalization, median ([1]; <75% of target Dose 2, p = 0.1905 vs placebo): 5 days
- Composite (the longer of the MV or InoTx), median ([1]; <85% of target Dose 2, p = 0.0029 vs placebo): 1283.5 min
- Vent (duration of mechanical ventilation), median ([1]; <85% of target Dose 2, p = 0.0163 vs placebo): 176.0 min
- Inotrope (duration of inotrope therapy), median ([1]; <85% of target Dose 2, p = 0.0176 vs placebo): 1263.5 min
- PICU/NICU stay, median ([1]; <85% of target Dose 2, p = 0.0332 vs placebo): 2 days
- Hospitalization, median ([1]; <85% of target Dose 2, p = 0.1369 vs placebo): 5 days
- Composite (the longer of the MV or InoTx), median ([1]; <95% of target Dose 2, p = 0.0033 vs placebo): 1357.0 min
- Inotrope (duration of inotrope therapy), median ([1]; <95% of target Dose 2, p = 0.0242 vs placebo): 1300.0 min
- Vent (duration of mechanical ventilation), median ([1]; <95% of target Dose 2, p = 0.0459 vs placebo): 237.0 min
- PICU/NICU stay, median ([1]; <95% of target Dose 2, p = 0.1232 vs placebo): 2 days
- Hospitalization, median ([1]; <95% of target Dose 2, p = 0.3169 vs placebo): 5 days
- Hospitalization, median ([1]; >95% of target Dose 2, p = 0.0006 vs placebo): 7 days
- PICU/NICU stay, median ([1]; >95% of target Dose 2, p = 0.0034 vs placebo): 4 days
- Vent (duration of mechanical ventilation), median ([1]; >95% of target Dose 2, p = 0.0041 vs placebo): 2385.0 min
- Inotrope (duration of inotrope therapy), median ([1]; >95% of target Dose 2, p = 0.0069 vs placebo): 3142.5 min
- Composite (the longer of the MV or InoTx), median ([1]; >95% of target Dose 2, p = 0.0114 vs placebo): 3447.0 min
- Composite (the longer of the MV or InoTx), median ([1]; All Patients, p = 0.3398 vs placebo (median 2204.0)): 1640.0 min
- Hospitalization, median ([1]; All Patients, p = 0.3681 vs placebo (median 5)): 5 days
- Inotrope (duration of inotrope therapy), median ([1]; All Patients, p = 0.7131 vs placebo (median 1717.0)): 1514.0 min
- PICU/NICU stay, median ([1]; All Patients, p = 0.8484 vs placebo (median 3)): 3 days
- Vent (duration of mechanical ventilation), median ([1]; All Patients, p = 0.9205 vs placebo (median 574.5)): 672.0 min
- Reduction in the length of stay in the PICU or NICU following surgery ([1]; Dose 2 at levels <95%, statistically significant): one
- Duration of MV, InoTx and composite primary, vs placebo ([1]; all doses under 95% of the target, two-sided Wilcoxon Rank Sum): Statistically significant reduction of all variables
- Composite endpoint, treated vs placebo ([1]; complete modified full analysis set): no difference
- Effect on composite variable, duration of mechanical ventilation and inotrope therapy vs placebo ([1]; doses higher than 95% of target (>190 μmol)): statistically significant negative effect
- Primary parameters (duration of MV & InoTx), treated vs placebo [2]: near-significance
